In assay [1] the test system is advanced glycation end-products (AGEs) formation. In words: Inhibition of protein glycation (BSA/D-glucose, fluorescent AGEs). As to conditions: BSA + D-glucose, 37 °C for a week. As for the experimental part:
The procedure by Sekhon-Loodu and Rupasinghe was adapted with slight modification. Bovine serum albumin (BSA), D-glucose and aminoguanidine were dissolved in 0.2 M phosphate buffer saline (pH 7.4) containing sodium azide (0.02% w/v). Equal volumes containing BSA (5.0 mg/mL) and D-glucose (36 mg/mL) and the negative control or the test samples or aminoguanidine at different concentrations (0.01, 0.02, 0.04, 0.05, 0.1, 0.2, 0.5 and 1.0 mg/mL) were added to reach a final volume of 1.0 mL. Aminoguanidine, a known AGE formation inhibitor, was used as the positive control. The mixtures in Eppendorf tubes were incubated in triplicate at 37 °C for a week. Fluorescent AGEs were measured using a microplate reader at 340 nm excitation and 420 nm emission wavelengths. Experiments were conducted in triplicates. The percentage of the AGE inhibition was calculated as shown below:(3) Inhibition (%)=[1−(Fluorescent of the test/Fluorescent of control)]×100
The results were expressed in terms of IC50 representing the concentration of test extracts required to cause the inhibition of AGE formation by 50%.

Assay [2] can be described thus: DPPH radical scavenging activity. As to conditions: soluble (70% ethanol) extracts; 30 min, 517 nm. As for the experimental part:
The method previously described by Ofosu et al. was used to measure DPPH radical scavenging by ethanol extracts using a 24-well microplate reader. Briefly, 200 μL sample extracts of various concentrations were added to 2 mL freshly made DPPH radical solution (100 μM). After 30 min incubation at room temperature, absorbance was read at 517 nm.
In general terms: DPPH is a stable violet radical that fades when it is reduced.

A short description of assay [3]: ABTS radical scavenging activity. As to conditions: soluble (70% ethanol) extracts; 734 nm. As for the experimental part:
The ABTS radical scavenging assay described by Ofosu et al. was used. ABTS^+ stock solution was prepared by reacting equal volumes of 7 mM ABTS solution with 2.45 mM potassium persulfate solution in the dark at room temperature for 16 h. Using ethanol, the ABTS+ stock solution was diluted to obtain an absorbance of approximately 0.70 at 734 nm. Appropriately, 80 μL sample extracts of various concentrations were added to 1 mL freshly prepared ABTS+ radical solution, and the absorbance was read at 734 nm.

This note sets out measurements from paper PMC7355972, “Flavonoids in Decorticated Sorghum Grains Exert Antioxidant, Antidiabetic and Antiobesity Activities” (Molecules, 2020).

The structures appear in SMILES notation.

As for `N=C(N)NN` [aminoguanidine], the “AGEs formation inhibitory activity IC50” value in assay [1] is 52.30 µg/mL.
As to `Cc1c(C)c2c(c(C)c1O)CCC(C)(C(=O)O)O2` (stereo not drawn) [Trolox, 6-hydroxy-2,5,7,8-tetramethylchromane-2-carboxylic acid], in assay [2], the “DPPH radical scavenging activity IC50” value is recorded as 48.7 ± 2.19 µg/mL. Further, the “ABTS radical scavenging activity IC50” value in assay [3] stood at 74.60 ± 1.45 µg/mL.
